Laboratory results reported in patent publication EP1728511A1, “New use of phenethicillin and salts thereof” (Faust Pharmaceuticals, priority 2005, dated 2006).

Test system: SK-N-SH neuroblastoma cell
Test: Serum deprivation assay, neuroblastoma cell survival (neutral red incorporation)
Type: cell-based, Human
Conditions: dose range of 1-10µM, SK-N-SH cells
From the text: Serum provides survival factors (ex: growth factors) necessary to cell viability in culture conditions. According to the serum concentration it is possible to modulate the state of the cell viability. Total suppression of these components triggers cell death via apoptosis or necrosis. Causes of cell death could be oxidative stress and free radical accumulation, mitochondrial dysfunction or imbalanced calcium homeostasis. Human SK-N-SH is a neuronal cell line usually cultured in serum containing medium. Serum withdrawal in the cell culture condition provides a cell-based assay allowing the study of neuroprotection and the screening for drugs capable of protecting cells from death or delaying cell death (Ba et al. (2003) The establishment of a reliable cytotoxic system with SK-N-SH neuroblastoma cell culture. J Neurosci. Methods 123:11-22, Green et al. (1997) 17α-oestradiol exerts neuroprotective effect on SK-N-SH cells. J Neurosci. 17(2):511-515) SK-N-SH cells (passage 35) were obtained from ECACC. […] Cell viability was assessed 48h later. […] The dye (3mg/mL) is allowed to be taken up by the cells one hour at 37°C, 5% CO2, and is subsequently extracted by mixture of acetic acid and ethanol (1/[…]) and measured at 540 nm. […]

Structure (SMILES): CC(Oc1ccccc1)C(=O)N[C@@H]1C(=O)N2[C@@H]1SC(C)(C)[C@@H]2C(=O)O (stereo partly drawn) [phenethicillin, (2S,5R,6R)-3,3-Dimethyl-7-oxo-6-[(1-oxo-2-phenoxypropyl)amino]-4-thia-1-azabicyclo[3.2.0]heptane-2-carboxylic acid]
- neuroblastoma cell death: significantly delayed neuroblastoma cell death
